Test results published in US8536168B2 (Novartis AG, priority 2007, dated 2013).
Read-outs that look alike come from different tables or passages of the source.

Assays:
[1] = molecular target: mouse Smoothened receptor (Mus musculus, UniProt P56726); assay: Smo binding assay, displacement of radio-labeled smoothened agonist, filter binding format (mouse); settings: displacement of small molecule agonist of Smoothened, read-out: Mouse Smo bdg., IC50
Text: A Smo binding assay was developed using radio-labeled smoothened agonist for compound competition.

[2] = molecular target: human Smoothened receptor (Homo sapiens, UniProt Q99835); assay: Smo binding assay, displacement of radio-labeled smoothened agonist, filter binding format (human); settings: displacement of small molecule agonist of Smoothened, read-out: Human Smo bdg., IC50
Chain of human Smoothened receptor (Q99835 28-787): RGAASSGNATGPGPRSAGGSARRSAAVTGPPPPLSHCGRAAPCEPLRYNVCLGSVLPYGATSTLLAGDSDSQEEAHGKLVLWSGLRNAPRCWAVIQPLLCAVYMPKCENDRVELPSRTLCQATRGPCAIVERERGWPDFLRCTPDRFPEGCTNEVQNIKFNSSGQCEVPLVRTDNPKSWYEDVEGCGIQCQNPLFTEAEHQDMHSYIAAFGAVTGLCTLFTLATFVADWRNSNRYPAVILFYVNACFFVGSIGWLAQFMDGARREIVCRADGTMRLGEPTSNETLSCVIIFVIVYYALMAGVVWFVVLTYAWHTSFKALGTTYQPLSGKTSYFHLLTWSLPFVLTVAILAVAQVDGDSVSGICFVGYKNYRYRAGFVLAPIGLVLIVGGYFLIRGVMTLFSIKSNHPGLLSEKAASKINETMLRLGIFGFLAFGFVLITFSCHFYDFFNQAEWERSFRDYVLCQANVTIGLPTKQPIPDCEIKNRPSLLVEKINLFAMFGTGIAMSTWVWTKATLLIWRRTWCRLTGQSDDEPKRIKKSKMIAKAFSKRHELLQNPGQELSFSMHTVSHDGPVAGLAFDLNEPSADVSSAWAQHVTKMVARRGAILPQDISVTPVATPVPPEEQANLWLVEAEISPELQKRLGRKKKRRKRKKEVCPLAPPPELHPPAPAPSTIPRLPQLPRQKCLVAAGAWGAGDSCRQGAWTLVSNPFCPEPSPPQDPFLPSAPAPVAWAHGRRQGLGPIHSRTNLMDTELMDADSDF
Text: A Smo binding assay was developed using radio-labeled smoothened agonist for compound competition. Table 9 lists the IC50 for displacement of a small molecule agonist of Smoothened determined in a filter binding format for the mouse and human Smoothened receptor.

Gli-luciferase activity = assay: Reporter gene assay (RGA) in TMHh12 cells, antagonism of Gli-luciferase activity in the presence of a Smo agonist; assay type: cell-based
Experimental: Activity of the compounds was evaluated using a reporter gene assay (RGA) in TMHh12 cells.

[3] = 25 nM small molecule Smo agonist, read-out: RGA (25 nM Smo agonist) IC50
[4] = read-out: RGA (1 nM Smo agonist) IC50, 1 nM small molecule Smo agonist

Chain of mouse Smoothened receptor (P56726 33-793): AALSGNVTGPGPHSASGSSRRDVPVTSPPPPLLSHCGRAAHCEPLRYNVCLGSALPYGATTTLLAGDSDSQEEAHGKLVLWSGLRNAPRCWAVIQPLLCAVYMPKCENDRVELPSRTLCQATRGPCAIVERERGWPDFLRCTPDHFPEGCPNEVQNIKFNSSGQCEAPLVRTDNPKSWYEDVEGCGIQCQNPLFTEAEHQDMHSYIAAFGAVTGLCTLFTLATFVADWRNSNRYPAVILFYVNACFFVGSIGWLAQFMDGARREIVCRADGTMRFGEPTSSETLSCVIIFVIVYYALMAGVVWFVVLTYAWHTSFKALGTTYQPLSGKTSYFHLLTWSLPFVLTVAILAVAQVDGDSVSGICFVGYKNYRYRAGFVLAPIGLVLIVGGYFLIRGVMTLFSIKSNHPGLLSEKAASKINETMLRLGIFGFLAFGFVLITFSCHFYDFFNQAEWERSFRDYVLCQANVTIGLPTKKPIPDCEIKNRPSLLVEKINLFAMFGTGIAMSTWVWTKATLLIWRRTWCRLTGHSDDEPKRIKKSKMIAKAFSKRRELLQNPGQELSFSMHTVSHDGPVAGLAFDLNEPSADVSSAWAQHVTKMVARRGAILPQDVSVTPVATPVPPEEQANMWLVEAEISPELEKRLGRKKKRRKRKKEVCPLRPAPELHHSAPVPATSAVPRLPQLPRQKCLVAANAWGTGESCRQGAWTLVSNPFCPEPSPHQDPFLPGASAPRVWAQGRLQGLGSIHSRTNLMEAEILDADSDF

SMILES | IC50 [1] [nM] | IC50 [2] [nM] | IC50 (Gli-luciferase activity; [3]) [nM] | IC50 (Gli-luciferase activity; [4]) [nM]
O=C(NC1CN(C(=O)OCc2ccccc2)C1)c1ccc(N2CCN(c3nnc(Cc4ccccc4)c4ccccc34)CC2)nc1 [Example 54x] | 100 to 1000 | < 100 | 100 to 1000 | 100 to 1000
O=C(NC1CNC1)c1ccc(N2CCN(c3nnc(Cc4ccccc4)c4ccccc34)CC2)nc1 [Example 54y] | 1000 to 10000 | 1000 to 10000 | 1000 to 10000 | 1000 to 10000
O=C(c1ccc(N2CCN(c3nnc(Cc4ccccc4)c4ccccc34)CC2)nc1)N1CC(O)C1 [Example 54z] | 100 to 1000 | 100 to 1000 | 100 to 1000 | < 100
COc1ccc(Cc2nnc(N3CCN(c4ccc(C#N)cn4)CC3)c3ccccc23)cc1OC [Example 58] | 1000 to 10000 | 1000 to 10000 | – | 1000 to 10000
N#Cc1ccc(N2CCN(c3nnc(Cc4ccc(Cl)cc4)c4ccccc34)CC2)nc1 [Example 59] | < 100 | < 100 | 100 to 1000 | < 100
N#Cc1ccc(N2CCN(c3nnc(CCc4ccccc4)c4ccccc34)CC2)nc1 [Example 61] | < 100 | 100 to 1000 | 1000 to 10000 | 100 to 1000
COc1ccc(Cc2nnc(N3CCN(c4ccc(C#N)cn4)CC3)c3ccccc23)cc1 [Example 64] | 100 to 1000 | 100 to 1000 | 1000 to 10000 | < 100
N#Cc1ccc(N2CCN(c3nnc(Cc4ccc(Br)cc4)c4ccccc34)CC2)nc1 [Example 66] | < 100 | < 100 | 100 to 1000 | < 100
CC(=O)NCc1ccc(N2CCN(c3nnc(Cc4ccccc4)c4ccccc34)CC2)nc1 [Example 70, N-{6-[4-(4-Benzyl-phthalazin-1-yl)-piperazin-1-yl]-pyridin-3-ylmethyl}-acetamide] | 100 to 1000 | 100 to 1000 | 100 to 1000 | < 100
CCC(=O)NCc1ccc(N2CCN(c3nnc(Cc4ccccc4)c4ccccc34)CC2)cc1 [Example 78a] | 100 to 1000 | 100 to 1000 | 100 to 1000 | < 100
CC(C)CC(=O)NCc1ccc(N2CCN(c3nnc(Cc4ccccc4)c4ccccc34)CC2)cc1 [Example 78c] | < 100 | < 100 | < 100 | < 100
Cc1cc(Cc2ccccc2)nnc1N1CCN(c2ccc(C#N)cn2)CC1 [Example 86] | 1000 to 10000 | 1000 to 10000 | 1000 to 10000 | 100 to 1000
Cc1cc(N2CCN(c3ccc(C(F)(F)F)cn3)CC2)nnc1Cc1ccccc1 [Example 89] | < 100 | < 100 | – | 100 to 1000
Cc1cc(Cc2ccc(F)cc2)nnc1N1CCN(c2ccc(C(F)(F)F)cn2)CC1 [Example 90] | < 100 | < 100 | 1000 to 10000 | < 100
Cc1cc(Cc2ccc(Cl)cc2)nnc1N1CCN(c2ccc(C#N)cn2)CC1 [Example 92] | 100 to 1000 | 100 to 1000 | 1000 to 10000 | 100 to 1000
N#Cc1ccc(N2CCN(c3nnc(Cc4ccc(F)cc4)c4c3CCCC4)CC2)nc1 [Example 93b] | 100 to 1000 | 100 to 1000 | 100 to 1000 | 100 to 1000
N#Cc1ccc(N2CCN(c3nnc(Cc4ccc(F)cc4)c4c3CCC4)CC2)nc1 [Example 93c, 6-{4-[4-(4-Fluoro-benzyl)-6,7-dihydro-5H-cyclopenta[d]pyridazin-1-yl]-piperazin-1-yl}-nicotinonitrile] | < 100 | < 100 | 100 to 1000 | < 100
N#Cc1cccc(C(=O)N2CCC(c3cn(Cc4ccc(F)cc4)c4ccccc34)CC2)c1 [Example 94, 3-{4-[1-(4-Fluoro-benzyl)-1H-indol-3-yl]-piperidine-1-carbonyl}-benzonitrile] | 100 to 1000 | 100 to 1000 | 1000 to 10000 | 100 to 1000
FC(F)(F)c1ccc(N2CCC(c3cn(Cc4ccccc4)c4ccccc34)CC2)nc1 [Example 97] | 100 to 1000 | 100 to 1000 | 1000 to 10000 | < 100

More lines, now with the values ahead:

IC50 [1] [nM] | IC50 [2] [nM] | IC50 (Gli-luciferase activity; [3]) [nM] | IC50 (Gli-luciferase activity; [4]) [nM] | SMILES
100 to 1000 | 100 to 1000 | 1000 to 10000 | 100 to 1000 | CC(C)(C)OC(=O)NC1CN(C(=O)c2ccc(N3CCN(c4nnc(Cc5ccccc5)c5ccccc45)CC3)nc2)C1 [Example 54v]
1000 to 10000 | 10000 to 40000 | 1000 to 10000 | 100 to 1000 | NC1CN(C(=O)c2ccc(N3CCN(c4nnc(Cc5ccccc5)c5ccccc45)CC3)nc2)C1 [Example 54w]
100 to 1000 | 100 to 1000 | 1000 to 10000 | 100 to 1000 | FC(F)(F)c1ccc(N2CCN(c3nnc(Cc4ccccc4)c4ccccc34)CC2)cc1 [Example 55, 1-Benzyl-4-[4-(4-trifluoromethyl-phenyl)-piperazin-1-yl]-phthalazine]
< 100 | 100 to 1000 | 1000 to 10000 | < 100 | N#Cc1ccc(N2CCN(c3nnc(Cc4cccc(C(F)(F)F)c4)c4ccccc34)CC2)nc1 [Example 56, 6-{4-[4-(3-Trifluoromethyl-benzyl)-phthalazin-1-yl]-piperazin-1-yl}-nicotinonitrile]
< 100 | < 100 | 100 to 1000 | < 100 | N#Cc1ccc(Cc2nnc(N3CCN(c4ccc(C#N)cn4)CC3)c3ccccc23)cc1 [Example 57]
< 100 | 100 to 1000 | 100 to 1000 | < 100 | N#Cc1ccc(N2CCN(c3nnc(Cc4cccc(Cl)c4)c4ccccc34)CC2)nc1 [Example 60]
< 100 | < 100 | 1000 to 10000 | < 100 | N#Cc1ccc(N2CCN(c3nnc(Cc4ccc5ccccc5c4)c4ccccc34)CC2)nc1 [Example 62]
100 to 1000 | 100 to 1000 | 1000 to 10000 | 100 to 1000 | N#Cc1ccc(N2CCN(c3nnc(Cc4ccc(C(F)(F)F)cc4)c4ccccc34)CC2)nc1 [Example 63]
100 to 1000 | 100 to 1000 | 1000 to 10000 | 100 to 1000 | N#Cc1ccc(N2CCN(c3nnc(Cc4cccc(C#N)c4)c4ccccc34)CC2)nc1 [Example 65]
< 100 | 100 to 1000 | 100 to 1000 | 100 to 1000 | N#Cc1ccc(N2CCN(c3nnc(Cc4cccc(Br)c4)c4ccccc34)CC2)nc1 [Example 67]
1000 to 10000 | 1000 to 10000 | 1000 to 10000 | 100 to 1000 | CC(c1ccccc1)c1nnc(N2CCN(c3ccc(C#N)cn3)CC2)c2ccccc12 (stereo not shown) [Example 68]
100 to 1000 | 100 to 1000 | 1000 to 10000 | < 100 | Cc1cccc(Cc2nnc(N3CCN(c4ccc(C#N)cn4)CC3)c3ccccc23)c1 [Example 69]
100 to 1000 | 100 to 1000 | 100 to 1000 | < 100 | COCC(=O)NCc1ccc(N2CCN(c3nnc(Cc4ccccc4)c4ccccc34)CC2)cc1 [Example 78b]
100 to 1000 | 1000 to 10000 | 100 to 1000 | 100 to 1000 | N#Cc1ccc(N2CCN(c3cnc(Cc4ccccc4)c4ccccc34)CC2)nc1 [Example 79, 6-[4-(1-Benzyl-isoquinolin-4-yl)-piperazin-1-yl]-nicotinonitrile]
1000 to 10000 | 10000 to 40000 | 10000 to 40000 | 1000 to 10000 | N#Cc1ccc(N2CCN(c3cnc(Cc4cccc(Cl)c4)c4ccccc34)CC2)nc1 [Example 81]
1000 to 10000 | 1000 to 10000 | 10000 to 40000 | 1000 to 10000 | N#Cc1ccc(N2CCN(c3cnc(Cc4cccc(C(F)(F)F)c4)c4ccccc34)CC2)nc1 [Example 82]
1000 to 10000 | 1000 to 10000 | 100 to 1000 | 100 to 1000 | N#Cc1ccc(N2CCN(c3ncc(Cc4ccccc4)c4ccccc34)CC2)nc1 [Example 83, 6-[4-(4-Benzyl-isoquinolin-1-yl)-piperazin-1-yl]-nicotinonitrile]
100 to 1000 | 100 to 1000 | 1000 to 10000 | < 100 | Cc1cc(Cc2ccc(F)cc2)nnc1N1CCN(c2ccc(C#N)cn2)CC1 [Example 84]
100 to 1000 | 100 to 1000 | – | 100 to 1000 | Cc1cc(N2CCN(c3ccc(C#N)cn3)CC2)nnc1Cc1ccc(F)cc1 [Example 85]
100 to 1000 | 100 to 1000 | – | 100 to 1000 | Cc1cc(N2CCN(c3ccc(C#N)cn3)CC2)nnc1Cc1ccccc1 [Example 87]
100 to 1000 | 100 to 1000 | 1000 to 10000 | < 100 | Cc1cc(Cc2ccccc2)nnc1N1CCN(c2ccc(C(F)(F)F)cn2)CC1 [Example 88]
100 to 1000 | 100 to 1000 | 1000 to 10000 | < 100 | Fc1ccc(Cn2cc(C3CCN(c4ccc(C(F)(F)F)cn4)CC3)c3ccccc32)cc1 [Example 95, 4-[1-(4-Fluoro-benzyl)-1H-indol-3-yl)-5′-trifluoromethyl-3,4,5,6-tetrahydro-2H-[1,2]-bipyridinyl]
100 to 1000 | 100 to 1000 | 100 to 1000 | < 100 | N#Cc1ccc(Cn2cc(C3CCN(c4ccc(C(F)(F)F)cn4)CC3)c3ccccc32)cc1 [Example 96]
1000 to 10000 | 1000 to 10000 | 1000 to 10000 | 100 to 1000 | N#Cc1ccc(N2CCC(c3cn(Cc4ccc(F)cc4)c4ccccc34)CC2)nc1 [Example 98]
100 to 1000 | 100 to 1000 | 1000 to 10000 | 100 to 1000 | FC(F)(F)c1ccc(N2CCC(c3cn(Cc4ccc(Br)cc4)c4ccccc34)CC2)nc1 [Example 99]
